Data from patent US20240270821A1, “GIP/GLP1/GCG TRI-RECEPTOR AGONISTS AND USES THEREOF” (priority 2023, published 2024).
Like-named read-outs stand apart in the source and are kept apart here. Starred links: 1 amine or outer side, 2 acyl side, 3 side chain; linkers in the order of their positions; H or OH if unused. Non-standard residues stand in square brackets, D forms with d. Groups on a side chain read outwards from the residue. *: point of attachment. C20 diacid = O=C(O)CCCCCCCCCCCCCCCCCCC(=O)*; C18 diacid = O=C(O)CCCCCCCCCCCCCCCCC(=O)*; αMePhe(2-F) = C[C@](N)(Cc1ccccc1F)C(=O)O; γGlu = O=C(O)[C@H](CCC(=O)[*:2])N[*:1]; αMe4Pal = C[C@](N)(Cc1ccncc1)C(=O)O; αMeY = C[C@](N)(Cc1ccc(O)cc1)C(=O)O; 4Pal = N[C@@H](Cc1ccncc1)C(=O)O; αMeL = CC(C)C[C@](C)(N)C(=O)O; Orn = NCCC[C@H](N)C(=O)O; AEEA = NCCOCCOCC(=O)O; Aib = CC(C)(N)C(=O)O

Key:
Type in all cases: cell-based
hGIPR [1] = molecular target: T1, hGIPR (Homo sapiens, UniProt P48546); assay: Functional cAMP activity in the presence of 1% HSA; settings: read-out: cAMP Rel EC50, hGIPR
T1 sequence (P48546 22-466): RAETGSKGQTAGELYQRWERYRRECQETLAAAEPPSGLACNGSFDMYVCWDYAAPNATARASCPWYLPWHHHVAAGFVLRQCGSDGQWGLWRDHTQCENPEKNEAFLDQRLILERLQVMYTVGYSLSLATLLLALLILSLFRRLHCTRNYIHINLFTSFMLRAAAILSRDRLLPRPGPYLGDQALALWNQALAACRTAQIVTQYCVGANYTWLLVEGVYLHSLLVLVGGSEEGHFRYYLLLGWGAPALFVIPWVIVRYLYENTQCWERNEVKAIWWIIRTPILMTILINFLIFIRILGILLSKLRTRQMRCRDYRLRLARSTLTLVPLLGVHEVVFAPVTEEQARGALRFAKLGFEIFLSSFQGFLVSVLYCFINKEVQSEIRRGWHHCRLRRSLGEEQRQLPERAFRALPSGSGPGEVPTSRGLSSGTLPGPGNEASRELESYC

hGLP-1R [2] = molecular target: T2, hGLP-1R (Homo sapiens, UniProt P43220); assay: Functional cAMP activity in the presence of 1% HSA; settings: read-out: cAMP Rel EC50, hGLP-1R
human GcgR = human GcgR (Homo sapiens, UniProt P47871); assay: Functional cAMP activity in the presence of 1% HSA; settings: read-out: cAMP Rel EC50, hGcgR
hGIPR [3] = molecular target: T1, hGIPR; assay: Functional cAMP activation in the presence of 0.1% casein (no HSA); settings: read-out: Relative cAMP EC50, hGIPR;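 as to Relative cAMP EC50, hGIPR: intracellular cAMP rise after 30 min at 37 °C read by HTRF against a standard curve, scaled between buffer alone (0%) and top control ligand concentration (100%), four-parameter fit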;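 as to Relative cAMP EC50, hGLP-1R: intracellular cAMP rise after 30 min at 37 °C read by HTRF, normalized between buffer only (0%) and maximal control ligand (100%), four-parameter variable-slope fit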;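 as to Relative cAMP EC50, hGcgR: intracellular cAMP rise after 30 min at 37 °C, read by HTRF against a cAMP standard curve, scaled from buffer only (0%) to maximal control ligand response (100%)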
hGLP-1R [4] = molecular target: T2, hGLP-1R; assay: as above; settings: read-out: Relative cAMP EC50, hGLP-1R
hGcgR = hGcgR (Homo sapiens, UniProt P47871); assay: as above; settings: read-out: Relative cAMP EC50, hGcgR;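 also: intracellular cAMP rise after 30 min at 37 °C, read by HTRF against a cAMP standard curve, scaled from buffer only (0%) to maximal control ligand response (100%)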
[5] = in the presence of 0.1% casein (no HSA), geometric mean

T2 sequence (P43220 24-463): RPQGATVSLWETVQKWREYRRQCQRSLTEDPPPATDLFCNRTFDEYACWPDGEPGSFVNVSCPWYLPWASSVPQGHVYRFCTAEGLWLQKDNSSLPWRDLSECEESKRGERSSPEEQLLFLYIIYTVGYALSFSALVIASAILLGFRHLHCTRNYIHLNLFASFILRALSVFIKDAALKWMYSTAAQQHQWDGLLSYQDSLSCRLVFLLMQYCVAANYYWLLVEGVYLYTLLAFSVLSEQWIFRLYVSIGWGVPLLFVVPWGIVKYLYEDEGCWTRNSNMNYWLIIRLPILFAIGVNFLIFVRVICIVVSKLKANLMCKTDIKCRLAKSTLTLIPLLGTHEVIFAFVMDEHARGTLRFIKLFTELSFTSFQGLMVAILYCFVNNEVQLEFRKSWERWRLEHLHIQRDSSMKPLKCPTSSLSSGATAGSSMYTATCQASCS
Sequence of human GcgR (P47871 26-477): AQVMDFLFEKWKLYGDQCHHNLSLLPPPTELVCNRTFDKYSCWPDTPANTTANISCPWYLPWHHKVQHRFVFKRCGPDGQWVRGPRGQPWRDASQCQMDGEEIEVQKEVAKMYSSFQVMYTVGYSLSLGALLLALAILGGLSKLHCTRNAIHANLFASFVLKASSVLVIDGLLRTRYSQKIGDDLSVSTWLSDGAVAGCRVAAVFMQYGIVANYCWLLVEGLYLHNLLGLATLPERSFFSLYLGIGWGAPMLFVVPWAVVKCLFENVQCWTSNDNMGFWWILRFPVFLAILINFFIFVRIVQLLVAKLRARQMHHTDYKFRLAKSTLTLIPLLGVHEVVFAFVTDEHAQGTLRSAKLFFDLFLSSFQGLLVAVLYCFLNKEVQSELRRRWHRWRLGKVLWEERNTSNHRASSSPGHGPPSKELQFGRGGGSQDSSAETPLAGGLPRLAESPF
Sequence of hGcgR (P47871 26-477): as above

EC50 (hGIPR [3])	EC50 (hGLP-1R [4])	EC50 (hGcgR)	Compound	EC50 (hGIPR [1])	EC50 (hGLP-1R [2])	EC50 (human GcgR)	EC50 (hGIPR [3]; [5])	EC50 (hGLP-1R [4]; [5])	EC50 (hGcgR; [5])
0.0132 nM	0.251 nM	2.28 nM	H-Y[Aib]QGT[αMePhe(2-F)]TSD[4Pal]SI[αMeL]LD[Orn]K([AEEA-γGlu-C18 diacid])AQ[αMe4Pal][Orn]FI[dE][αMeY]LIEGGPSSGEPPPETE-NH2 [Example 678]	0.929 nM	22.1 nM	245 nM	–	–	–
–	–	–	H-Y[Aib]QGTFTSD[4Pal]SQ[αMeL]LDKK([AEEA-γGlu-C18 diacid])AQ[Aib]AFIE[αMeY]LIEGGPSSGAPPPEGS-NH2 [Example 853]	32.4 nM	102 nM	4500 nM	0.224 nM	0.507 nM	26.5 nM
0.0541 nM	0.561 nM	8.35 nM	CC[C@H](C)[C@H](NC(=O)[C@H](Cc1ccccc1)NC(=O)[C@H](CCCN)NC(=O)C(C)(C)NC(=O)[C@H](CCC(N)=O)NC(=O)[C@H](C)NC(=O)[C@H](CCCCNC(=O)[C@H](CCC(=O)O)NC(=O)CC[C@H](NC(=O)CCCCCCCCCCCCCCCCC(=O)O)C(=O)O)NC(=O)[C@H](CCCN)NC(=O)[C@H](CC(=O)O)NC(=O)[C@H](CC(C)C)NC(=O)[C@](C)(CC(C)C)NC(=O)[C@@H](NC(=O)[C@](C)(CO)NC(=O)[C@H](Cc1ccncc1)NC(=O)[C@H](CC(=O)O)NC(=O)[C@H](CO)NC(=O)[C@@H](NC(=O)[C@](C)(Cc1ccccc1F)NC(=O)[C@@H](NC(=O)CNC(=O)[C@H](CCC(N)=O)NC(=O)C(C)(C)NC(=O)[C@@H](N)Cc1ccc(O)cc1)[C@@H](C)O)[C@@H](C)O)[C@@H](C)CC)C(=O)N[C@H](CCC(=O)O)C(=O)N[C@@](C)(Cc1ccc(O)cc1)C(=O)N[C@@H](CC(C)C)C(=O)N[C@@H](CCC(N)=O)C(=O)N[C@@H](CCC(=O)O)C(=O)NCC(=O)NCC(=O)N1CCC[C@H]1C(=O)N[C@@H](CO)C(=O)N[C@@H](CO)C(=O)NCC(=O)N[C@@H](CCC(=O)O)C(=O)N1CCC[C@H]1C(=O)N1CCC[C@H]1C(=O)N1CCC[C@H]1C(=O)N[C@@H](CCC(=O)O)C(=O)NCC(=O)N[C@H](C(=O)N[C@@H](CCC(=O)O)C(=O)N[C@@H](CCC(=O)O)C(=O)N[C@@H](CCC(=O)O)C(N)=O)[C@@H](C)O [Example 594]	3.32 nM	49.1 nM	570 nM	–	–	–
–	–	–	H-Y[Aib]QGTFTSDFSK[αMeL]LDKK([AEEA-γGlu-C20 diacid])AQ[Aib]AFIEYLLAGGPSSGAPPPSGS-NH2 [Example 14]	34.7 nM	232 nM	1420 nM	0.17 nM	1.67 nM	7.23 nM

Compound	EC50 (hGIPR [3])	EC50 (hGLP-1R [4])	EC50 (hGcgR)	EC50 (hGIPR [1])	EC50 (hGLP-1R [2])	EC50 (human GcgR)	EC50 (hGIPR [3]; [5])	EC50 (hGLP-1R [4]; [5])	EC50 (hGcgR; [5])
CC[C@H](C)[C@H](NC(=O)[C@H](CC(C)C)NC(=O)[C@](C)(Cc1ccc(O)cc1)NC(=O)[C@@H](CCC(=O)O)NC(=O)[C@@H](NC(=O)[C@H](Cc1ccccc1)NC(=O)[C@H](CCC(=O)O)NC(=O)C(C)(C)NC(=O)[C@H](C)NC(=O)[C@H](C)NC(=O)[C@H](CCCCNC(=O)COCCOCCNC(=O)CC[C@H](NC(=O)CCCCCCCCCCCCCCCCC(=O)O)C(=O)O)NC(=O)[C@H](CCCN)NC(=O)[C@H](CC(=O)O)NC(=O)[C@H](CC(C)C)NC(=O)[C@](C)(CC(C)C)NC(=O)[C@@H](NC(=O)[C@](C)(CO)NC(=O)[C@H](Cc1ccncc1)NC(=O)[C@H](CC(=O)O)NC(=O)[C@H](CO)NC(=O)[C@@H](NC(=O)[C@](C)(Cc1ccccc1F)NC(=O)[C@@H](NC(=O)CNC(=O)[C@H](CCC(N)=O)NC(=O)C(C)(C)NC(=O)[C@@H](N)Cc1ccc(O)cc1)[C@@H](C)O)[C@@H](C)O)[C@@H](C)CC)[C@@H](C)CC)C(=O)N[C@@H](CCC(=O)O)C(=O)NCC(=O)NCC(=O)N1CCC[C@H]1C(=O)N[C@@H](CO)C(=O)N[C@@H](CO)C(=O)NCC(=O)N[C@@H](C)C(=O)N1CCC[C@H]1C(=O)N1CCC[C@H]1C(=O)N1CCC[C@H]1C(=O)N[C@@H](CO)C(=O)NCC(=O)N[C@H](C(=O)NCC(=O)N[C@H](CCC(=O)O)C(N)=O)[C@@H](C)O [Example 723]	0.0118 nM	0.255 nM	1.82 nM	1.02 nM	26.5 nM	179 nM	–	–	–
